Results: US11318077B2, “Retinaldehyde containing compositions and methods of use” (RODAN & FIELDS, LLC, priority 2017, dated 2022)
Several values for one entry are separate records, joined by “and”; a condition that tells them apart may be missing. Identical values can stand only once.

Assays:
[1] = test system: Retinoic Acid Response Element (RARE) transcription factor pathway; assay: Cignal RARE Reporter Assay (firefly luciferase) in HEK293 cells; format: cell-based; settings: for RARE-mediated firefly luciferase expression, % control / RARE-mediated firefly luciferase expression, Fold increase: 24 h, vs water; for Activity in RARE reporter assay: tested concentrations
Source text: Objective: Retinoic Acid Receptor (RAR) controls gene transcription by binding to Retinoid Acid Response Elements (RAREs) in DNA. This process is modulated by all trans retinoic acid (ATRA)—a compound with well-established anti-aging skin benefits. […] Cignal RARE Reporter Assay® is designed to screen for such compounds using cell cultures. The objective of this project was to test 6 compounds (retinoic acid (ATRA), retinol, vitamin A palmitate, retinal, 10% w/w Near-1 in dimethylisosorbide, and 10% w/w retinoid ester in dimethylisosorbide) for the ability to activate RARE in this Cignal RARE Reporter Assay model.
(§1) Materials & Methods: The experiments were performed using HEK293 cells (Sigma, St. Louis, Mo.; cat. #85120602) seeded at 50,000 per well in a 96 well black-wall tissue culture plate. Cells were transfected by mixing Cignal Reporter Assay firefly/renilla luciferase constructs (cat. #CCS-016L; Qiagen) with Attractene Transfection Reagent (Qiagen) in Opti-MEM supplemented with 1% MEM Non-essential amino acid solution without L-glutamine. After medium change test materials were added and their effect on RARE induction was quantified 24 h later with the Dual-Luciferase Reporter Assay System (cat. #E1960; Promega).

[2] = test system: Retinoid X receptor (RXR) transcription factor pathway; assay: Cignal RXR Reporter Assay (firefly luciferase) in HEK293 cells; format: cell-based; settings: for RXR activation (% control): 24 h, vs water; for Activity in RXR reporter assay: tested concentrations
Source text: Objective: Retinoid X receptors (RXRs) are one class of nuclear receptors through which retinoids mediate their biological effects. These receptors function as transcription factors by binding as heterodimers to specific sequences in the promoters of target genes. The protein encoded by this gene is a member of the steroid and thyroid hormone receptor superfamily of transcriptional regulators. One of its ligands is all trans retinoic acid (ATRA)—a compound with well-established anti-aging skin benefits. […] Cignal RXR Reporter Assay® is designed to screen for such compounds (retinoic acid (ATRA), retinal, 10% w/w Near-1 in dimethylisosorbide, and 10% w/w retinoid ester in dimethylisosorbide) using cell cultures. The objective of this project was to test four compounds for the ability to activate RXR in this Cignal RXR Reporter Assay model.
as §1, with “The” for “Materials & Methods: The”, “Cignal RXR” for “Cignal”, “#CCS9044L;” for “#CCS-016L;”, “Lglutamine.” for “L-glutamine.”, “RXR” for “RARE”
RXR is a mixture of an inducible retinoid X receptor—responsive firefly luciferase construct and a constitutively expressing Renilla construct, which acts as an internal control for normalizing transfection efficiencies and monitoring cell viability. Signal quantification was obtained with ThermoFisher Scientific Luminoskan Ascent Microplate Luminometer.

[3] = test system: mild to moderate lines and wrinkles, dullness and moderate dyschromia; assay: Tolerability assessments (subjective and objective), IRS compared with 0.1% Adapalene, 12 weeks; format: in vivo, human (women); settings: IRS vs 0.1% Adapalene
Source text: (§2) The objective of the study is to evaluate and compare the anti-aging efficacy and tolerability of 0.1% Adapalene compared to Intensive Renewing Serum over a 12-week period when used by women with mild to moderate lines and wrinkles, dullness and moderate dyschromia.
Subjects reported to the facility at Baseline for Expert Grader assessments of various facial photoaging and irritation parameters, subjective assessments of facial irritation, digital imaging of the face, replica sampling of the crow's foot area, capacitance and firmness/elasticity measurements of the face and completed a self-assessment questionnaire. Subjects were randomized to receive 1 of 2 investigational products for treatment to the entire face for 12 weeks. Subjects returned to the lab at Week 2 and Week 4 to have Expert Grader assessments, digital imaging and self-assessments repeated. At Weeks 8 and 12, subjects returned for Expert Grader assessments, digital imaging, replica sampling, capacitance and firmness/elasticity measurements and self-assessments.
(§3) Expert Grader Assessments: In addition to screening and selecting the final panel, an Expert Grader assessed the face of each subject for various irritation and efficacy parameters at Baseline and after 2, 4, 8 and 12 weeks of treatment. The scale that was used for each assessment parameter (unless otherwise indicated) is: 0=none, 1-3=mild, 4-5=moderate, […].
Irritation parameters: The Expert Grader assessed the face of each subject at each time point for the following irritation parameters using a 0-9 scale: Erythema, Dryness, Scaling, and Edema. Using a 0-9 scale, subjects were asked to rate their amount of: Burning, Stinging, Itching, Tightness, and Dryness.
Treatment Procedures: approximately 20-25 subjects assigned to each product per randomization. After the Baseline assessments and measurements had been completed, the subjects reported to the Treatment Technician, who dispensed a new container of their assigned product to the subject and instructed the subject to apply the product according to the Sponsor's instructions below:
Product C: Morning instructions: Follow your regular morning skincare routine. Evening instructions: Product C should be used once daily in the evening, after your regular cleanser. Open a capsule by twisting off the tail end of one capsule. Apply the serum over your entire face, including under the eyes and crow's feet. […] Avoid getting into eyes, In case of inadvertent eye contact, rinse eyes with plenty of water to remove product from eyes. […] Use one capsule per night. Follow with the rest of your evening skin care Regimen. Note: make sure that no water gets into the jar and that your hands are dry before use. Please ensure the jar is tightly closed after each use.
Product N: Morning instructions: Follow your regular morning skincare routine. Evening instructions: Product N should be used once daily in the evening, after your regular cleanser. Clean the skin gently with your regular cleanser and pat dry before applying Product N. Cover the entire face, including under the eyes and crow's feet, with a thin layer. […] Avoid product contact with eyes, lips and mouth. If contact occurs, immediately flush the area with water. […] Wash hands after use. […] Follow with the rest of your evening skin care Regimen.

[4] = test system: mild to moderate lines and wrinkles, dullness and moderate dyschromia; assay: Comparison grading from photos, IRS compared with 0.1% Adapalene; format: in vivo, human (women)
Method: (§4) Efficacy parameters: The assessments of efficacy were made using methods that would provide the Sponsor the most information on changes in the subject's skin over time. The methods that the Expert Grader used to assess efficacy are as follows: 1. Live Grading: Absolute scores from viewing the subject's face were assigned using a 0-9 scale. Live grades were conducted at each time point. 2. Baseline Aided Grading: Absolute scores from viewing the subject's face were assigned using a 0-9 scale at the Baseline visit and the Expert Grader used the subject's Baseline photo for reference at follow-up visits. Baseline aided grading was conducted at each time point other than at Baseline. 3. Comparison Grading from Photos: Comparison grading was performed after the conclusion of the study. The Expert Grader compared the photos from each time point to Baseline for improvement/worsening using the below scale: −4=Marked worsening, −3=Moderate worsening, −2=Mild worsening, −1=Barely perceptible worsening, −0.1=Forced choice worsening, 0=No change, 0.1=Forced choice improvement, 1=Barely perceptible improvement, 2=Mild improvement, 3=Moderate improvement, and 4=Marked improvement.
The following efficacy parameters were assessed by the Expert Grader along with the assessment method(s) are listed: 1. Skin Texture (softness/smoothness) [tactile]: Live grading, 2. Skin Texture [visual]: Live grading/Baseline aided, 3. Fine Lines (eye area including crow's feet): Live grading/Baseline aided/Comparison scores from photos, 4. […] Pinch recoil (under the eye): Live grading (For this assessment, a 0-9 score will not be assigned. Per the Sponsor, the evaluator will pinch the subject's skin at the designated site using the thumb and forefinger and hold the skin in place for approximately 2 seconds. A stopwatch will be started upon release and the time required for the subject's skin to return to its original conformation will be measured to the nearest tenth of a second. A decrease in pinch recoil times over time indicates an improvement in skin “bounce-back” or elasticity/resiliency.). […]

[5] = test system: mild to moderate lines and wrinkles, dullness and moderate dyschromia; assay: Expert Grader clinical grading assessment of efficacy, IRS compared with 0.1% Adapalene; format: in vivo, human (women)
Source text: as §2, §3, §4
The following efficacy parameters were assessed by the Expert Grader along with the assessment method(s) are listed: 1. Skin Texture (softness/smoothness) [tactile]: Live grading, 2. Skin Texture [visual]: Live grading/Baseline aided, 3. Fine Lines (eye area including crow's feet): Live grading/Baseline aided/Comparison scores from photos, 4. Wrinkles (eye area, including crows feet): Live grading, Baseline aided, Comparison scores from photos, 5. Pore appearance: Comparison scores from photos, 6. Firmness: Live grading, 7. Sagging (nasolabial fold area): Comparison scores from photos, 8. Discrete hyperpigmentation: Comparison scores from photos, 9. Mottled hyperpigmentation: Comparison scores from photos, 10. Skin tone evenness: Comparison scores from photos, 11. Radiance/luminosity/glow (defined as Dull to luminous/shiny): Live grading, 12. Sallowness (sallow to rosy): Live grading/Baseline aided, 13. Overall healthy skin appearance: Comparison scores from photos, 14. Overall photodamage: Live grading/Baseline aided, 15. Pinch recoil (under the eye): Live grading (For this assessment, a 0-9 score will not be assigned. Per the Sponsor, the evaluator will pinch the subject's skin at the designated site using the thumb and forefinger and hold the skin in place for approximately 2 seconds. A stopwatch will be started upon release and the time required for the subject's skin to return to its original conformation will be measured to the nearest tenth of a second. A decrease in pinch recoil times over time indicates an improvement in skin “bounce-back” or elasticity/resiliency.). […]

SMILES | RARE-mediated firefly luciferase expression, % control ([1]; 1 μM) | RARE-mediated firefly luciferase expression, Fold increase ([1]; 1 μM) | RARE-mediated firefly luciferase expression, % control ([1]; 5 μM) | RARE-mediated firefly luciferase expression, Fold increase ([1]; 5 μM) | RXR activation (% control) ([2]; 1 μM) | RXR activation (% control) ([2]; 5 μM) | Activity in RXR reporter assay [2] | RARE-mediated firefly luciferase expression, % control ([1]; 10 μM) | RARE-mediated firefly luciferase expression, Fold increase ([1]; 10 μM) | Activity in RARE reporter assay [1] | also measured
CC1=C(/C=C/C(C)=C/C=C/C(C)=C/C(=O)O)C(C)(C)CCC1 [ATRA, all trans retinoic acid] | 1054 % control and 1284 % control | 10.5 and 12.8 | 973 % control | 9.7 | 340 % control | 437 % control | best performers |  |  |  | RARE-mediated firefly luciferase expression, % control ([1]; 0.2 μM): 775 % control and 1099 % control; RARE-mediated firefly luciferase expression, Fold increase ([1]; 0.2 μM): 7.8 and 11.0; RXR activation (% control) ([2]; 0.2 μM): 201 % control
COc1ccc(-c2ccc3cc(C(=O)O)ccc3c2)cc1C12CC3CC(CC(C3)C1)C2 [Adapalene, adapalene] |  |  |  |  |  |  |  |  |  |  | Burning (subjective) [3]: somewhat greater degree of perceived burning; Dryness (objective, clinical) [3]: greater degree of tactile dryness; Erythema (objective, clinical) [3]: somewhat greater degree of erythema; Scaling (objective, clinical) [3]: greater degree of visual scaling; Stinging (subjective) [3]: somewhat greater degree of perceived stinging; Dryness/Tightness (subjective) ([3]; most notably at Week 4): slightly greater perception of dryness/tightness; Photo comparison mean scores (overall) ([4]; IRS vs 0.1% Adapalene): mean scores slightly favored Adapalene; Discrete Hyperpigmentation, photo comparison ([4]; over 12 weeks): slightly better results; Mottled Hyperpigmentation, photo comparison ([4]; over 12 weeks): progressive & slightly better result; Elasticity/Resiliency, clinical grading ([5]; by weeks 8 & 12): No improvement; Skin Texture (Visual), clinical grading ([5]; by weeks 8 & 12): slight improvement; Fine Lines, clinical grading ([5]; comparable first 4 weeks, mild improvements by week 8, course to week 12): remains constant; Radiance/Luminosity/Glow, clinical grading ([5]; over 12 weeks): Mild improvement persists through week 8; Skin Texture (Tactile), clinical grading ([5]; over 12 weeks): By week 12, no improvement
CC1=C(/C=C/C(C)=C/C=C/C(C)=C/C=O)C(C)(C)CCC1 [Retinal, retinaldehyde] | 613 % control | 6.1 | 1005 % control | 10.0 | 131 % control | 181 % control | best performers | 946 % control | 9.5 | best performer | times less effective than retinoic acid in modulating the RARE pathway ([1]; at 1 uM): 1.7 times; effectiveness vs retinoic acid in modulating the RARE pathway ([1]; at 5 uM): equivalent to retinoic acid; RXR activation (% control) ([2]; 10 μM): 279 % control; times less effective in modulating RXR pathway in comparison to retinoic acid ([2]; at 5 uM): 2.4 times
CC1=C(/C=C/C(C)=C/C=C/C(C)=C/CO)C(C)(C)CCC1 [Retinol, retinol] | 138 % control and 150 % control | 1.4 and 1.5 | 268 % control and 253 % control | 2.7 and 2.5 |  |  |  | 278 % control and 294 % control | 2.8 and 2.9 |  | 
CCCCCCCCCCCCCCCC(=O)OC/C=C(C)/C=C/C=C(C)/C=C/C1=C(C)CCCC1(C)C [Vit A Palmitate, vitamin A palmitate] | 75 % control and 76 % control | 0.7 and 0.8 | 77 % control and 73 % control | 0.8 and 0.7 |  |  |  | 86 % control and 67 % control | 0.9 and 0.7 | All test materials except Vit-A-Pal were active | 
